Results published in the supplement of paper PMC10307832.

What was measured:
Test in all cases: relative viability (nuclei count vs DMSO), 5 days (fraction); higher = more cells survive
Pifithrin_alpha = compound: CC1=CC=C(C=C1)C(=O)CN2C3=C(CCCC3)SC2=N [Pifithrin_alpha]
Outline: (§1)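 In 1536-well plates, lung cancer cell lines rested overnight at 37 °C before five library-drug doses (not always all listed), √10 apart, were pinned onto vehicle-anchored plates. Nuclei were counted with MetaXpress from 4× Hoechst images taken after 5 days without medium change. Viability compares treated-well with vehicle-well nuclei as a median over plates, and plates needed control CV below 25% plus at least one doubling to pass.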

Axitinib = compound: CNC(=O)c1ccccc1Sc1ccc2c(/C=C/c3ccccn3)n[nH]c2c1 [Axitinib]
Outline: as §1

Bemcentinib = compound: Nc1nc(Nc2ccc3c(c2)CC[C@@H](N2CCCC2)CC3)nn1-c1cc2c(nn1)-c1ccccc1CCC2 [Bemcentinib]
Outline: as §1

Axitinib + Dasatinib = compound: CNC(=O)c1ccccc1Sc1ccc2c(/C=C/c3ccccn3)n[nH]c2c1 [Axitinib] + Cc1nc(Nc2ncc(C(=O)Nc3c(C)cccc3Cl)s2)cc(N2CCN(CCO)CC2)n1 [Dasatinib] (partner 0.075 µM)
Outline: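 For relative viability, nuclei counts in treated wells were divided by those in vehicle wells. Lung cancer cell lines had been pin-tool dosed in 1536-well plates the day after seeding and cultured for 5 days, then fixed and stained in one step (final 0.05% Triton X-100, 1% formaldehyde, 1 ug/ml Hoechst) and imaged at 4×. Doses were one drug alone or a fixed anchor-drug dose plus five library-drug doses (not always all listed) in √10 steps, and values are duplicate-plate medians.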

Cell Line	relative viability (Pifithrin_alpha; 1 µM)	relative viability (Pifithrin_alpha; 3.162 µM)	relative viability (Pifithrin_alpha; 10 µM)	relative viability (Pifithrin_alpha; 31.62 µM)	relative viability (Pifithrin_alpha; 100 µM)	relative viability (Axitinib; 0.005 µM)	relative viability (Axitinib; 0.01581 µM)	relative viability (Axitinib; 0.05 µM)	relative viability (Axitinib; 0.1581 µM)	relative viability (Axitinib; 0.5 µM)	relative viability (Bemcentinib; 0.04 µM)	relative viability (Bemcentinib; 0.1265 µM)	relative viability (Bemcentinib; 0.4 µM)	relative viability (Bemcentinib; 1.265 µM)	relative viability (Bemcentinib; 4 µM)	relative viability (Axitinib + Dasatinib; first compound 0.005 µM)	relative viability (Axitinib + Dasatinib; first compound 0.01581 µM)	relative viability (Axitinib + Dasatinib; first compound 0.05 µM)	relative viability (Axitinib + Dasatinib; first compound 0.1581 µM)	relative viability (Axitinib + Dasatinib; first compound 0.5 µM)
ChaGo-K-1	0.882	0.987	1	0.842	1.05	1.06	1.02	1.05	0.922	0.936	1.01	0.966	1.03	0.938	0.929	0.611	0.552	0.583	0.423	0.611
EBC-1	0.973	0.996	0.794	0.582	0.723	1.15	0.995	1.05	0.956	1.08	1.02	1.2	1.09	0.999	1.22	–	–	–	–	–
EKVX	0.984	0.861	0.858	0.738	0.695	1.01	0.963	0.917	0.88	0.99	0.793	1.09	1.02	1.03	1.03	0.602	0.31	0.334	0.435	0.507
EMC-BAC-2	0.716	1.02	0.617	0.799	0.93	1	0.925	0.977	0.957	0.771	0.956	0.939	1.07	0.955	0.978	0.353	0.327	0.315	0.379	0.383
EPLC-272H	0.622	0.892	0.859	0.755	0.802	0.943	0.832	0.938	0.896	0.83	0.749	0.991	1.01	0.906	0.841	0.342	0.337	0.372	0.353	0.241
H3255	0.856	0.93	0.945	0.71	0.795	0.985	0.851	0.912	0.894	0.896	0.804	0.994	0.993	0.951	0.964	0.351	0.341	0.359	0.38	0.373
HARA	0.906	0.783	0.916	0.65	0.853	1.05	0.79	0.887	0.756	1.12	0.899	1.28	0.995	0.82	0.951	0.211	0.2	0.293	0.246	0.253
HCC-15	0.938	1.02	0.931	0.674	0.808	1.06	0.99	1	0.98	0.947	0.964	1.13	1.05	1.07	1.07	0.658	0.673	0.658	0.56	0.622
